Patent EP1614683B1, “Indazole compounds and pharmaceutical compositions for inhibiting protein kinases, and methods for their use” (priority 1999, dated 2001)
pIC50, pKi: −log10 of the molar value. Like-named read-outs stand apart in the source and are kept apart here.

Key:
in vivo = details: mouse, plasma, pH 2.3
human FGF-R1 = human FGF-R1 (Homo sapiens, UniProt P11362, C488A/C584S/L457V); experiment: FGF-R spectrophotometric assay; type: biochemical; details: Table 1; compound concentration 1 µM; read-out: FGF-P* (% inhibition)
human FGF-R1, sequence (P11362 456-766 L457V/C488A/C584S): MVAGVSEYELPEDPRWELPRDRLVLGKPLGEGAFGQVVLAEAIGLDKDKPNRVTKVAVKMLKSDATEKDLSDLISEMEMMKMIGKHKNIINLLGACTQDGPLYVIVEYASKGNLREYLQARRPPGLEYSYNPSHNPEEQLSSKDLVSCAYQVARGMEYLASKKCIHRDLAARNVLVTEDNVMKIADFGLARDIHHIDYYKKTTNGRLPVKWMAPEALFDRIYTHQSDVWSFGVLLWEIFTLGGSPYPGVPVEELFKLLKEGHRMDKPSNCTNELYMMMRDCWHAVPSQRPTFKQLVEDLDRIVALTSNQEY
Procedure: The spectrophotometric assay was carried out as described above for VEGF-R2, except for the following changes in concentration: FGF-R = 50 nM, ATP = 2 mM, and poly(E4Y1) =15 mM.

LCK tyrosine kinase = LCK tyrosine kinase (Homo sapiens, UniProt P06239, C224D/P223M); experiment: LCK spectrophotometric assay; type: biochemical; details: Table 1; compound concentration 1 µM; read-out: Lck-P* (% inhibition)
LCK tyrosine kinase, sequence (P06239 223-509 P223M/C224D): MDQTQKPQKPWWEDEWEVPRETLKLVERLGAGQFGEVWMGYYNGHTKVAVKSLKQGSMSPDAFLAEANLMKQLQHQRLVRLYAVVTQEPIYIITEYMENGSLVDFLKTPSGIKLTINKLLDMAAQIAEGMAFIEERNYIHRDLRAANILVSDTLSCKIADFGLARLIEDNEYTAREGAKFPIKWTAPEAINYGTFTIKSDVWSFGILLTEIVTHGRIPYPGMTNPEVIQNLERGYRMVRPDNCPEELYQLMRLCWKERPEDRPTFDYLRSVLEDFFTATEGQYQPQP
Procedure: The spectrophotometric assay was carried out as described above for VEGF-R2, except for the following changes in concentration: LCK = 60 nM, MgCl2 = 0 mM, poly(E4Y1) = 20 mM.

[1] = test system: human umbilical vein endothelial cells (HUVEC); experiment: HUVEC proliferation assay (VEGF-stimulated, MTT); type: cell-based; details: Homo sapiens, HUVEC, Table 1
human CHK1 (FL-CHK1) = biological target: T1, human CHK1 (FL-CHK1) (Homo sapiens, UniProt O14757); experiment: CHK1 coupled spectrophotometric assay; type: biochemical
T1 construct: C-terminally His-tagged full-length human CHK1 (FL-CHK1) was expressed using the baculovirus/insect cell system; made in house; host or cells: baculovirus/insect cell system
T1 sequence (O14757 1-476): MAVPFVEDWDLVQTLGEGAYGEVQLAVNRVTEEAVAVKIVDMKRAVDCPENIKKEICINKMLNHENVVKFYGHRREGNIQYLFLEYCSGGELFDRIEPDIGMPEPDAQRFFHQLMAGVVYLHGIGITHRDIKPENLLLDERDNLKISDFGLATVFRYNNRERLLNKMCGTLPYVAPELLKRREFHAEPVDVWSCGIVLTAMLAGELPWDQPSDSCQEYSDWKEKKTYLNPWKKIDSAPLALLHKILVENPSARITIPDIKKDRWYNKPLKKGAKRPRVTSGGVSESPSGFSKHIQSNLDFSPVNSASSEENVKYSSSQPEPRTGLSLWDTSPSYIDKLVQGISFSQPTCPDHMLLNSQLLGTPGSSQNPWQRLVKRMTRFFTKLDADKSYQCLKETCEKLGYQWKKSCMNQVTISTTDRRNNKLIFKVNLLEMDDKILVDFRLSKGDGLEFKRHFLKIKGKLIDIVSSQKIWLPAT
Text: CHK1 Construct for Assay: C-terminally His-tagged full-length human CHK1 (FL-CHK1) was expressed using the baculovirus/insect cell system. […] The protein was purified by conventional chromatographic techniques.
The production of ADP from ATP that accompanies phosphoryl transfer to the synthetic substrate peptide Syntide-2 ([…]) was coupled to oxidation of NADH using phosphoenolpyruvate (PEP) through the actions of pyruvate kinase (PK) and lactic dehydrogenase (LDH). The oxidation of NADH was monitored by following the decrease of absorbance at 340 nm (∈340 = 6.22 cm^-1 mM^-1) using a HP8452 spectrophotometer. […] Assays were initiated with 10 nM of FL-CHK1. Ki values were determined by measuring initial enzyme activity in the presence of varying concentrations of test compounds. The data were analyzed using Enzyme Kinetic and Kaleidagraph software.

in vitro = in vitro ADME, human; details: human liver microsomes, 5 µM test compound, 37 °C, 2 h
Procedure: Compound metabolism in human liver microsomes was measured by LC-MS analytical assay procedures as follows. First, human liver microsomes (HLM) were thawed and diluted to 5 mg/mL with cold 100 mM potassium phosphate (KPO4) buffer. Appropriate amounts of KPO4 buffer, NADPH-regenerating solution (containing B-NADP, glucose-6-phosphate, glucose-6-phosphate dehydrogenase, and MgCl2), and HLM were preincubated in 13 x 100 mm glass tubes at 37 C for 10 min. (3 tubes per test compound--triplicate). Test compound (5 µM final) was added to each tube to initiate reaction and was mixed by gentle vortexing, followed by incubation at 37 °C. At t=0, 2 h, a 250-µL sample was removed from each incubation tube to separate 12 x 75 mm glass tubes containing 1 mL ice-cold acetonitrile with 0.05 µM reserpine. […] Supernatant was transferred to new 12 x 75 mm glass tubes and evaporated by Speed-Vac centrifugal vacuum evaporator. Samples were reconstituted in 200 µL 0.1 % formic acid/acetonitrile (90/10) and vortexed vigorously to dissolve. The samples were then transferred to separate polypropylene microcentrifuge tubes and centrifuged at 14000 x g for 10 min. (Fisher Micro 14, S/N M0017580). For each replicate (#1-3) at each timepoint (0 and 2 h), an aliquot sample of each test compound was combined into a single HPLC vial insert (6 total samples) for LC-MS analysis, which is described below.

[2] = biological target: unphosphorylated VEGF-R2Δ50 (Homo sapiens, UniProt P35968, DEL940-989/E990V); experiment: biochemical; details: read-out: FLVK ** (% inhibition)
unphosphorylated VEGF-R2Δ50, sequence (P35968 with tags, fused parts or gaps DEL940-989/E990V limits assumed): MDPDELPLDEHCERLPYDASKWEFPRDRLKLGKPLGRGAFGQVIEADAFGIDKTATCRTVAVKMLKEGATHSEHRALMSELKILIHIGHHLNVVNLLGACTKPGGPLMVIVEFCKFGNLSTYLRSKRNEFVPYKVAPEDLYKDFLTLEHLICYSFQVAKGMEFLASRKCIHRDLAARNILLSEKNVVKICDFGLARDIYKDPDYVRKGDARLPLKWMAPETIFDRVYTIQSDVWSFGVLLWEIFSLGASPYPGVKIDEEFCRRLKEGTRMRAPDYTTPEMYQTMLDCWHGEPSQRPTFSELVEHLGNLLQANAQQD

[3] = PO, 25 mg/kg, vehicle PEG400:H2O pH 2.3 30:70
[4] = + albumin, read-out: HUVEC + albumin IC50
[5] = IP, 25 mg/kg, vehicle PEG400:H2O pH 2.3 30:70
[6] = PO, 50 mg/kg, vehicle PEG400:H2O pH 2.3 30:70

Row | Compound | T1/2 [3] | AUC (in vivo; po, 25 mg/kg) | inhibition at 1 µM (human FGF-R1) | inhibition at 1 µM (LCK tyrosine kinase) | pIC50 [1, 4] | other results
1 | CC(=O)Nc1cc(C(=O)c2ccc3c(/C=C/c4ccccn4)n[nH]c3c2)ccc1C [41 (gg)] | 1.1 h | 2690 ng·h/mL |  |  |  | 
2 | CCn1nc(C)cc1C(=O)Nc1cccc(Oc2ccc3c(/C=C/c4c[nH]cn4)n[nH]c3c2)c1 [Reference Example 32(b), 6-[3-((1-Ethyl-3-methyl-1H-pyrazol-5-yl)carboxamido)phenoxy]-3-E-[2-(1H-imidazol-4-yl)ethenyl]-1H-indazole] | 2.1 h | 490 ng·h/mL | 95% | 70% | 7.68 | 
3 | COc1ccc(-c2ccc3c(/C=C/c4ccccc4)n[nH]c3c2)cc1OC [Reference Example 27(j)] |  |  |  |  |  | inhibition at 50 µM (human CHK1 (FL-CHK1); read-out: CHK-1* (% inhibition @ 50 µM)): 15%
4 | O=C(Nc1cccc(C(=O)c2ccc3c(/C=C/c4ccccc4)n[nH]c3c2)c1)c1ccncc1 [19(j), 6-[3-(pyridin-4-ylcarboxamido)benzoyl]-3-E-styryl-1H-indazole] |  |  | 44% | 23% | 7.30 | pIC50 ([1]; read-out: HUVEC IC50): 8.66; remaining at 2 h, 5 µM (in vitro; read-out: % remain (HLM, 2 h)): 66%; T1/2 (IP, 25 mg/kg, vehicle PEG400:H2O pH 2.3 60:40): 1.6 h; T1/2 (PO, 50 mg/kg, vehicle PEG400:H2O pH 2.3 60:40): 1.2 h; AUC (in vivo; ip, 25 mg/kg): 23200 ng·h/mL; AUC (in vivo; po, 50 mg/kg): 5890 ng·h/mL
5 | Cc1cc(C(=O)Nc2cccc(C(=O)c3ccc4c(/C=C/c5ccccn5)n[nH]c4c3)c2)cc(Cl)n1 [41 (q)] | 5.2 h |  |  |  |  | AUC (in vivo; ip, 25 mg/kg): > 27000 ng·h/mL
6 | Cc1cc(C(=O)Nc2cc(C(=O)c3ccc4c(/C=C/c5ccccn5)n[nH]c4c3)ccc2C)n(C)n1 [41 (hh)] |  | 5600 ng·h/mL |  |  |  | half-life (in vivo; po, 25 mg/kg): 7.9 h
7 | Cc1cc(C(=O)Nc2cccc(C(=O)c3ccc4c(/C=C/c5ccccn5)n[nH]c4c3)c2)n(C(C)C)n1 [41 (x)] | 4.2 h | 24200 ng·h/mL |  |  |  | 
8 | 3-(1H-benzoimidazol-2-yl)-N-(4-hydroxy-3-methylphenyl)-1H-indazole-6-carboxamide [Example 53(c)] |  |  |  |  |  | pKi (human CHK1 (FL-CHK1); Table 3, read-out: CHK-1* (Ki)): 5.96
9 | O=C(NNc1ccccn1)c1ccccc1Sc1ccc2c(/C=C/c3ccccn3)n[nH]c2c1 [35 (n)] | 1.4 h | 4820 ng·h/mL |  |  |  | 
10 | CN(O)C(=O)c1ccccc1Sc1ccc2c(/C=C/c3ccccn3)n[nH]c2c1 [35 (o)] | 1.0 h | 683 ng·h/mL |  |  |  | Cmin (7 hr conc.) [3]: 3 ng/mL
11 | Cn1nc(C(C)(C)C)cc1C(=O)Nc1cccc(C(=O)c2ccc3c(/C=C/c4ccccn4)n[nH]c3c2)c1 [41 (n)] |  |  |  |  |  | T1/2 [5]: 3.2 h; T1/2 [6]: 1.9 h; AUC (in vivo; ip, 25 mg/kg): 9410 ng·h/mL; AUC (in vivo; po, 50 mg/kg): 9070 ng·h/mL
12 | Cc1cc(C(=O)Nc2cc(C(=O)c3ccc4c(/C=C/c5ccccn5)n[nH]c4c3)c(C)cc2C)n(C)n1 [41 (mm)] |  | 2260 ng·h/mL |  |  |  | half-life (in vivo; po, 25 mg/kg): 2.5 h
13 | O=C(Nc1ccccc1)c1ccccc1Sc1ccc2c(/C=C/c3ccccn3)n[nH]c2c1 [Reference Example 33(c), 6-[2-(phenylcarbamoyl)phenylsulfanyl]-3-E-[2-(pyrldin-2-yl)ethenyl]-1H-indazole] |  |  | 76% | 26% | 8.18 | % remain (HLM, 2 h) (in vitro): 16%; Cmin (7 hr conc.) [5]: 7 ng/mL; T1/2 [5]: 1.2 h; Cmin (7 hr conc.) [6]: 5 ng/mL; T1/2 [6]: 3.0 h; AUC (in vivo; ip, 25 mg/kg): 697 ng·h/mL; AUC (in vivo; po, 50 mg/kg): 183 ng·h/mL
14 | C=CCn1nc(C)cc1C(=O)Nc1cccc(C(=O)c2ccc3c(/C=C/c4ccccn4)n[nH]c3c2)c1 [41 (t)] | 4.0 h | > 22500 ng·h/mL |  |  |  | 
15 | COc1cc(C(=O)Nc2cccc(C(=O)c3ccc4c(/C=C/c5ccccn5)n[nH]c4c3)c2)cc(Cl)n1 [41 (u)] | 5.6 h | 875 ng·h/mL |  |  |  | 
16 | CCn1nc(C)cc1C(=O)Nc1cccc(Oc2ccc3c(/C=C/c4c[nH]c(C)n4)n[nH]c3c2)c1 [Reference Example 32(c), 6-[3-((1-Ethyl-3-methyl-1H-pyrazol-5-yl)carboxamido)phenoxy]-3-E-[2-(2-methylimidazol-4-yl)ethenyl]-1H-indazole] | 2.4 h | 388 ng·h/mL | 96% | 52% | < 7.52 | 
17 | COc1cccc(C(=O)Nc2cccc(C(=O)c3ccc4c(/C=C/c5ccccn5)n[nH]c4c3)c2)c1 [41 (bb)] |  |  |  |  |  | T1/2 [6]: 2.0 h; AUC (in vivo; po, 50 mg/kg): 2180 ng·h/mL
18 | O=C(c1cccc(NC(=O)c2ccc(Cl)s2)c1)c1ccc2c(/C=C/c3ccccn3)n[nH]c2c1 [Reference Example 41(o), 6-[3-((5-chlorothien-2-yl)carboxamido)benzoyl]-3-E-[2-(pyridin-2-yl)ethenyl]-1H-indazole] |  |  | 74% | 77% | 8.00 | % remain (HLM, 2 h) (in vitro): 94%; AUC (in vivo; ip, 25 mg/kg): > 33800 ng·h/mL
19 | O=C(Nc1nccs1)c1ccccc1Sc1ccc2c(/C=C/c3ccccn3)n[nH]c2c1 [Reference Example 35(y), 6-[2-(Thiazol-2-ylcarbamoyl)phenylsulfanyl]-3-E-[2-(pyridin-2-yl)ethenyl]-1H-indazole] |  |  | 82% | 29% | 8.52 to 9.00 | % remain (HLM, 2 h) (in vitro): 7%; inhibition at 0.05 µM [2]: 99%
20 | CCn1nc(C)cc1C(=O)Nc1cccc(Oc2ccc3c(/C=C/c4cn(C)c(C)n4)n[nH]c3c2)c1 [Reference Example 31(f), 6-[3-((1-Ethyl-3-methyl-1H-pyrazol-5-yl)carboxamido)phenoxy]-3-E-[2-(1,2-dimethyl-1H-imidazol-4-yl)ethenyl]-1H-indazole] | 2.6 h | > 245000 ng·h/mL | 99% | 62% | < 8.00 | inhibition at 0.05 µM [2]: 97%
21 | Cc1cc(C(=O)Nc2cc(C(=O)c3ccc4c(/C=C/c5ccccn5)n[nH]c4c3)ccc2C)n(C(C)C)n1 [Reference Example 41(kk), 6-[3-((1-Isopropyl-3-methyl-1H-pyrazol-5-yl)carboxamido)-4-methylbenzoyl]-3-E-[2-(pyridin-2-yl)ethenyl]-1H-indazole] |  |  | 97% | 26% | 7.80 | % remain (HLM, 2 h) (in vitro): 63%; inhibition at 0.05 µM [2]: 100%
22 | CC(C)ONC(=O)c1cccc(F)c1Sc1ccc2c(/C=C/c3ccccn3)n[nH]c2c1 [Reference Example 37(c), 6-[6-fluoro-2-(isopropoxycarbamoyl)phenylsulfanyl]-3-E-[2-(pyridin-2-yl)ethenyl]-1H-indazole] |  |  | 39% | 12% | 7.92 | % remain (HLM, 2 h) (in vitro): 21%; inhibition at 0.05 µM [2]: 83%
